From patent US20230107642A1 (Erasca, Inc., priority 2020, published 2023)

Target: T1, Cys12 of the KRAS 4B G12C protein (Homo sapiens, UniProt P01116, G12C)
T1 construct: This protein contained 188 amino acids in total, including an N-terminal 6-Histidine tag; made in house; host or cells: E. coli BL21
Assay: In vitro covalent adduct formation (CAF) assay, LC-MS intact mass
Type: binding
Settings: for % CAF 10 uM @ 60 min: 10 uM compound; for CAF (% after 1 hour): 10 μM compound
Method in brief: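 Percent covalent modification from intact-mass LC-MS, by relative free versus adducted protein (adducts within 1 Da of expected mass). Reaction: 10 μM compound with 5 μM E. coli-expressed, GDP-exchanged KRAS 4B G12C in TBS pH 7.4, 4% DMSO, 1 h at 22° C.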

% CAF 10 uM @ 60 min (60 min) [%]	SMILES	also measured
94.5	C=CC(=O)N1[C@H](C)CN(c2nc(=O)n3c4c(c(-c5cc(Cl)c(F)cc5F)c(C(F)(F)F)cc24)SC[C@@H]3CN2C[C@@H]3C[C@H]2CO3)C[C@@H]1C (atropisomer, axis not shown) [Example 1331, (3S,10R)-3-(((1S,4S)-2-oxa-5-azabicyclo[2.2.1]heptan-5-yl)methyl)-7-((3S,5R)-4-acryloyl-3,5-dimethylpiperazin-1-yl)-10-(5-chloro-2,4-difluorophenyl)-9-(trifluoromethyl)-2,3-dihydro-5H-[1,4]thiazino[2,3,4-ij]quinazolin-5-one]	
90.8	C=CC(=O)N1[C@H](C)CN(c2nc(=O)n3c4c(c(-c5ccc(F)cc5F)c(C(F)(F)F)cc24)SC[C@@H]3CN2C[C@@H]3C[C@H]2CO3)C[C@@H]1C (atropisomer, axis not shown) [Example 1300, (3S,10S)-3-(((1S,4S)-2-oxa-5-azabicyclo[2.2.1]heptan-5-yl)methyl)-7-((3S,5R)-4-acryloyl-3,5-dimethylpiperazin-1-yl)-10-(2,4-difluorophenyl)-9-(trifluoromethyl)-2,3-dihydro-5H-[1,4]thiazino[2,3,4-ij]quinazolin-5-one]	
60.6	C=CC(=O)N1[C@H](C)CN(c2nc(=O)n3c4c(c(-c5c(F)cccc5F)c(C(F)(F)F)cc24)SC[C@@H]3COC)C[C@@H]1C [Example 1371, (S)-7-((3S,5R)-4-acryloyl-3,5-dimethylpiperazin-1-yl)-10-(2,6-difluorophenyl)-3-(methoxymethyl)-9-(trifluoromethyl)-2,3-dihydro-5H-[1,4]thiazino[2,3,4-ij]quinazolin-5-one]	
93	C=CC(=O)N1[C@H](C)CN(c2nc(=O)n3c4c(c(-c5ccc(F)cc5)c(C(F)(F)F)cc24)SCC(CO)(CO)C3)C[C@@H]1C [Example 1430, 8-((3S,5R)-4-acryloyl-3,5-dimethylpiperazin-1-yl)-11-(4-fluorophenyl)-3,3-bis(hydroxymethyl)-10-(trifluoromethyl)-3,4-dihydro-2H,6H-[1,4]thiazepino[2,3,4-ij]quinazolin-6-one]	

The next lines start with the compound.

SMILES	% CAF 10 uM @ 60 min (60 min) [%]	also measured
C=CC(=O)N1CCN(c2nc(=O)n3c4c(c(-c5ccc(F)cc5F)c(C(F)(F)F)cc24)SC[C@@H]3CN2CCN(CC)CC2)CC1 (atropisomer, axis not shown) [Example 1317, (3S,10S)-7-(4-acryloylpiperazin-1-yl)-10-(2,4-difluorophenyl)-3-((4-ethylpiperazin-1-yl)methyl)-9-(trifluoromethyl)-2,3-dihydro-5H-[1,4]thiazino[2,3,4-ij]quinazolin-5-one]	98.3	
C=CC(=O)N1[C@H](C)CN(c2nc(=O)n3c4c(c(-c5cc(Cl)c(F)cc5F)c(C(F)(F)F)cc24)SC[C@@H]3COC)C[C@@H]1C (single isomer, unassigned) [Example 1140]		% CAF 10 uM @ 60 min (60 min incubation): 93.9%
C=CC(=O)N1[C@H](C)CN(c2nc(=O)n3c4c(c(-c5ncc(F)cc5F)c(C(F)(F)F)cc24)SC[C@@H](OC)C3)C[C@@H]1C [Example 1225, (3S)-8-((3S,5R)-4-Acryloyl-3,5-dimethylpiperazin-1-yl)-11-(3,5-difluoropyridin-2-yl)-3-methoxy-10-(trifluoromethyl)-3,4-dihydro-2H,6H-[1,4]thiazepino[2,3,4-ij]quinazolin-6-one]		CAF (% after 1 hour): 95%
C=CC(=O)N1CCN(c2nc(=O)n3c4c(c(-c5cc(Cl)c(F)cc5F)c(C(F)(F)F)cc24)SC[C@@H]3COC)CC1 (atropisomer, axis not shown) [Example 1107, (3S,10R)-7-(4-acryloylpiperazin-1-yl)-10-(5-chloro-2,4-difluorophenyl)-3-(methoxymethyl)-9-(trifluoromethyl)-2,3-dihydro-5H-[1,4]thiazino[2,3,4-ij]quinazolin-5-one]		% CAF 10 uM @ 60 min (60 min incubation): 97%
C=CC(=O)N1[C@@H]2CC[C@H]1CN(c1nc(=O)n3c4c(c(-c5cc(Cl)c(F)cc5F)c(C(F)(F)F)cc14)SC[C@@H]3CN1CCN(CC)CC1)C2 [Example 1403, (3S)-7-((1R,5S)-8-acryloyl-3,8-diazabicyclo[3.2.1]octan-3-yl)-10-(5-chloro-2,4-difluorophenyl)-3-((4-ethylpiperazin-1-yl)methyl)-9-(trifluoromethyl)-2,3-dihydro-5H-[1,4]thiazino[2,3,4-ij]quinazolin-5-one]	80.3	
C=CC(=O)N1[C@@H]2CC[C@H]1CN(c1nc(=O)n3c4c(c(-c5cc(Cl)c(F)cc5F)c(Cl)cc14)SC[C@@H]3CN1CCN(CC)CC1)C2 [Example 1400, (3S)-7-((1R,5S)-8-acryloyl-3,8-diazabicyclo[3.2.1]octan-3-yl)-9-chloro-10-(5-chloro-2,4-difluorophenyl)-3-((4-ethylpiperazin-1-yl)methyl)-2,3-dihydro-5H-[1,4]thiazino[2,3,4-ij]quinazolin-5-one]	43.7	
C=CC(=O)N1C[C@H](C)N(c2nc(=O)n3c4c(c(-c5cccc6cnn(C)c56)c(C(F)(F)F)cc24)SC[C@@H]3CN2CCN(CC)CC2)C[C@H]1C (atropisomer, axis not shown) [Example 1382, (3S,10S)-7-((2S,5R)-4-acryloyl-2,5-dimethylpiperazin-1-yl)-3-((4-ethylpiperazin-1-yl)methyl)-10-(1-methyl-1H-indazol-7-yl)-9-(trifluoromethyl)-2,3-dihydro-5H-[1,4]thiazino[2,3,4-ij]quinazolin-5-one]	49.1	
C=CC(=O)N1[C@H](C)CN(c2nc(=O)n3c4c(c(-c5cc(Cl)c(F)cc5F)c(C(F)(F)F)cc24)SC[C@@H](Oc2cc(C)on2)C3)C[C@@H]1C [Example 1231, (3S,11S)-8-((3S,5R)-4-acryloyl-3,5-dimethylpiperazin-1-yl)-11-(5-chloro-2,4-difluorophenyl)-3-((5-methylisoxazol-3-yl)oxy)-10-(trifluoromethyl)-3,4-dihydro-2H,6H-[1,4]thiazepino[2,3,4-ij]quinazolin-6-one]		CAF (% after 1 hour): 38%
C=CC(=O)N1C[C@H](C)N(c2nc(=O)n3c4c(c(-c5cc(Cl)c(F)cc5F)c(C(F)(F)F)cc24)SCC2(COC2)C3)C[C@H]1C (single isomer, unassigned) [Example 1120]		% CAF 10 uM @ 60 min (60 min incubation): 64.9%
C=CC(=O)N1[C@H](C)CN(c2nc(=O)n3c4c(c(-c5ccc(F)cc5)c(C(F)(F)F)cc24)SC[C@@H](OCC)C3)C[C@@H]1C [Example 1203, (S)-8-((3S,5R)-4-acryloyl-3,5-dimethylpiperazin-1-yl)-3-ethoxy-11-(4-fluorophenyl)-10-(trifluoromethyl)-3,4-dihydro-2H,6H-[1,4]thiazepino[2,3,4-ij]quinazolin-6-one]		CAF (% after 1 hour): 95%
C=CC(=O)N1[C@H](C)CN(c2nc(=O)n3c4c(c(-c5cc(Cl)c(F)cc5F)c(C(F)(F)F)cc24)SC[C@H](OCCOC)C3)C[C@@H]1C [Example 1030, (3R)-8-((3S,5R)-4-acryloyl-3,5-dimethylpiperazin-1-yl)-11-(5-chloro-2,4-difluorophenyl)-3-(2-methoxyethoxy)-10-(trifluoromethyl)-3,4-dihydro-2H,6H-[1,4]thiazepino[2,3,4-ij]quinazolin-6-one]		CAF (% binding after 60 min) (after 60 min): 96%
